Test results taken from patent US11525155B2, “Stabilisation of biological samples” (QIAGEN GmbH, priority 2013, dated 2022).
Non-standard residues stand in square brackets, D forms with d. *: point of attachment. Nle = CCCC[C@H](N)C(=O)O; Cbz = O=C(OCc1ccccc1)*; CH2F = FC*

Key:
caspase-3 = biological target: T1, caspase-3 (Homo sapiens, UniProt P42574); conditions: cited from earlier work
T1 sequence (P42574 29-175 limits assumed): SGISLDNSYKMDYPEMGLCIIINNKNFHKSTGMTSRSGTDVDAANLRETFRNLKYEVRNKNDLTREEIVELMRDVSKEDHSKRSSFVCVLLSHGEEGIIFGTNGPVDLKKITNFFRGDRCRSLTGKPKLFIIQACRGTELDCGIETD
T1 sequence (P42574 176-277 limits assumed): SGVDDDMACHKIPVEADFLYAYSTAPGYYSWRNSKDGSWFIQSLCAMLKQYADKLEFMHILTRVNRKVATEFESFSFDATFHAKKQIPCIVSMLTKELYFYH

caspase-7 = biological target: T2, caspase-7 (Homo sapiens, UniProt P55210); conditions: cited from earlier work
T2 sequence (P55210 24-198 limits assumed): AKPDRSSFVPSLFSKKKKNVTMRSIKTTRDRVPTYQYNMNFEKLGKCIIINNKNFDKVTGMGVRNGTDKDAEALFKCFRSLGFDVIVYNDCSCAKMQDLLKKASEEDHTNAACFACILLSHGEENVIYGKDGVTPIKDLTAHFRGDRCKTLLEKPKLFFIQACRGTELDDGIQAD
T2 sequence (P55210 207-303 limits assumed): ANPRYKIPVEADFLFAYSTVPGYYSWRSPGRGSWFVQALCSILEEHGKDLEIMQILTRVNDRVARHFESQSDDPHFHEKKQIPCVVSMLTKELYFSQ

18S ribosomal DNA = assay: Stabilization of extracellular nucleic acid population in whole blood, 18S rDNA qPCR (66 bp and 500 bp amplicon); type: cell-based, human; conditions: 7.2 mg/ml K2 EDTA, 3 and 6 days RT
Experimental: Blood obtained from donors was collected into 10 ml K2 EDTA tubes (BD). 4.5 ml of the respectively collected blood was mixed with 0.9 ml of different stabilization solutions (see below examples on the details of the tested stabilization solutions).
All stabilized blood samples were set up in triplicates per condition and test time point. At time point 0 (reference), immediately after mixing the stabilization solution and blood, plasma was generated and the circulating extracellular DNA was extracted. The residual stabilized blood sample was stored for three days and six days at room temperature.
As a reference control, the EDTA stabilized blood sample (collected in K2 EDTA tubes without further additives) was also stored for 3 and 6 days. […] DMAA stabilized samples as tested herein always included additionally a caspase inhibitor. No DMAA containing stabilizing solutions without caspase inhibitor were tested in the subsequent examples.
Plasma was generated from the stabilized and unstabilized (EDTA) blood samples by inverting the blood containing tubes for four times. Then, the tubes were centrifuged for 10 minutes at 1900×g at 4° C. 2.5 ml of the plasma fraction was transferred into a fresh 15 ml falcon tube and centrifuged for 10 minutes at 16.000×g at 4° C. 2 ml of the respectively cleared plasma was used for extracellular nucleic acid isolation using the QIAamp circulating nucleic acid kit (QIAGEN) according to the manufacturer's instructions.
The isolated extracellular DNA was analyzed using two different qPCR assays, targeting different fragment lengths of the 18S ribosomal DNA:
Cycle threshholds of the individual samples were translated into amount of gDNA in the eluate, according to a gDNA standard curve. The gDNA amount of the storage time points was compared to the time zero gDNA level from the same donor and is shown as fold increase in the figures. Especially the increase of the 500 bp fragment in the plasma fraction of the blood sample after storage is an indication for a lysis/destruction of white blood cells. Thus, the lower the amount of released 500 bp DNA, the better the performance of the stabilization method.
The figures corresponding to the subsequently described examples show the increase of DNA relative to time point 0 with the different stabilization solutions (fold change) using different amplicon lengths of 18S rRNA gene. Bars indicate the mean of the triplicate samples per condition and test time point.

[1] = tested on: transcripts of FOS, IL1B, IL8 and TP53; assay: Transcript level stabilisation in blood samples, real time RT-PCR monoplex assays; type: cell-based; conditions: EDTA blood, 2% (w/v) N-methylacetamide, one and three days at RT
[2] = buffer; cited from earlier work
red blood cells = assay: Hemolysis in stabilized blood samples; type: cell-based; conditions: butanamide 0.5% (w/v) to 3.5% (w/v) in blood mixture
white blood cells [3] = assay: Microscopic evaluation of blood smears (cell morphology/integrity); type: cell-based; conditions: EDTA blood, final 5% v/v formamide, 0.5× MOPS pH5.5, RT up to three days
white blood cells [4] = assay: Flow cytometry analysis of cell integrity; type: cell-based; conditions: EDTA blood mixed with test solution (5% v/v formamide)
Experimental: FIG. 6: Flow cytometry (FC) analysis of peripheral blood samples of one donor of example 1. Blood was directly drawn into BD EDTA tubes and PreAnalytiX PAXgene Blood RNA Tubes (PAXgene). […] Immediately after collection and treatment of samples, blood aliquots were analysed without incubation (0 h samples), while remaining samples were incubated at RT for one and three days (24 h and 72 h samples) prior to FC analysis. Shown per picture are the size (x-axis=forward scatter) and granularity (y-axis=sideward scatter) of 10,000 events per sample aliquot tested that contain signals of cells, cell debris and particles. The different populations of white blood cells that are distinguishable from each other in FC analysis (L, M, NG) and the cell-free fraction (D) are indicated by circles for the (+) control (EDTA) sample. They are as follows:
Where indicated, cell morphology was investigated by microscopic evaluation of blood smears and cell integrity by flow cytometry (FC).
The results obtained by microscopic analysis were verified by the analysis of cell integrity with flow cytometry. […] However, not all white blood cells may be equally well stabilized during longer stabilization periods. However, intact cells were detected and the detected cell populations are important for certain diagnostic applications which aim e.g. at the analysis of lymphocytes.

calpain I = biological target: T3, calpain I (Homo sapiens, UniProt P07384); conditions: cited from earlier work
T3 sequence (P07384 1-714): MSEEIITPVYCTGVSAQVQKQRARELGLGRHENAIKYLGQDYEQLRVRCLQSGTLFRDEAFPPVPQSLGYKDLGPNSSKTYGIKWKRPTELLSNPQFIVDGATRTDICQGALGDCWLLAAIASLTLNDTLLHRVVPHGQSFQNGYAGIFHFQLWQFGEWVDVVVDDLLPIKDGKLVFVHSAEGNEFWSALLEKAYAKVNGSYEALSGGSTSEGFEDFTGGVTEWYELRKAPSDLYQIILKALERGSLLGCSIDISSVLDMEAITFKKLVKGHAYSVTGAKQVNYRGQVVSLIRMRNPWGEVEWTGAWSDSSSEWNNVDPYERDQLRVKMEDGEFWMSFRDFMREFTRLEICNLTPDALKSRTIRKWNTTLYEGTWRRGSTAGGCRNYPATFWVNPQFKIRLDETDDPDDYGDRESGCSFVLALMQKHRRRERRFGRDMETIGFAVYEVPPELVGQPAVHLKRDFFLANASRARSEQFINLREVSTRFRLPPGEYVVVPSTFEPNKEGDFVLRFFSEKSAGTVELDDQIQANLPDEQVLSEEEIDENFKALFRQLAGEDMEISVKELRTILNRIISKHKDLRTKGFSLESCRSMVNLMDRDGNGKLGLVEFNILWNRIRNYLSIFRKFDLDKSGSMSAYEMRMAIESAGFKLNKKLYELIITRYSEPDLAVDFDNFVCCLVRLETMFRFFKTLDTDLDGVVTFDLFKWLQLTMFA
T3 sequence (P04632 1-268 partner): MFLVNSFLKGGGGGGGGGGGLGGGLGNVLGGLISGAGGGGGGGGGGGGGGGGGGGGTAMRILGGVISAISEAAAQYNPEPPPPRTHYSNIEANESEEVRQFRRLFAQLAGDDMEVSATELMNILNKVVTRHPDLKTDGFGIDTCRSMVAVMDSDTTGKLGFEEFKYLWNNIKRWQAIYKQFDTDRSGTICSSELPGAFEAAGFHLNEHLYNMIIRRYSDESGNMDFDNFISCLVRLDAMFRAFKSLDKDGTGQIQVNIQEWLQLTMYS

cathepsin L = cathepsin L (Homo sapiens, UniProt P07711); conditions: cited from earlier work
calpain II = biological target: T4, calpain II (Homo sapiens, UniProt P17655); conditions: cited from earlier work
T4 sequence (P17655 1-700): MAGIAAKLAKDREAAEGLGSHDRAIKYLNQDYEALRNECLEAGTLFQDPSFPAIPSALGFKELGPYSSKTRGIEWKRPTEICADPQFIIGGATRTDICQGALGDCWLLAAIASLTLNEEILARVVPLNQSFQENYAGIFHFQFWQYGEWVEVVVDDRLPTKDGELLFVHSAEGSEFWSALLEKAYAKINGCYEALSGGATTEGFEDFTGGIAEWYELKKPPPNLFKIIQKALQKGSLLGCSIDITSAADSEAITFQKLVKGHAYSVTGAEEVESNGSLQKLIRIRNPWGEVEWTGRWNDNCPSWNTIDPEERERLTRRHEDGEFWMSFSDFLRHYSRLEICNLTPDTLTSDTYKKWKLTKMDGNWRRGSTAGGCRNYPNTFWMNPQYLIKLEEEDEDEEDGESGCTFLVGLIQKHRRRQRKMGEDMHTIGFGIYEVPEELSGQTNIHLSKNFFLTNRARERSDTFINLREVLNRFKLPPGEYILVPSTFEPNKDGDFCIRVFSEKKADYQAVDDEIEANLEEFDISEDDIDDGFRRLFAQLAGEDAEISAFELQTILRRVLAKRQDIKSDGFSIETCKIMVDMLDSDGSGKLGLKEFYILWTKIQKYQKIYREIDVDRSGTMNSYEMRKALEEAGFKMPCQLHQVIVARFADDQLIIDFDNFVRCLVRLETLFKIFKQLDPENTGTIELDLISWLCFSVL
T4 sequence (P04632 1-268 partner): T3 sequence (P04632 1-268 partner)

apoptosis = conditions: cited from earlier work
[5] = amide in different concentrations with 1 μM Quinoline-Val-Asp-CH2-OPH (caspase inhibitor)
[6] = amide alone in different concentrations, without caspase inhibitor

cathepsin L, sequence (P07711 114-333, species assumed): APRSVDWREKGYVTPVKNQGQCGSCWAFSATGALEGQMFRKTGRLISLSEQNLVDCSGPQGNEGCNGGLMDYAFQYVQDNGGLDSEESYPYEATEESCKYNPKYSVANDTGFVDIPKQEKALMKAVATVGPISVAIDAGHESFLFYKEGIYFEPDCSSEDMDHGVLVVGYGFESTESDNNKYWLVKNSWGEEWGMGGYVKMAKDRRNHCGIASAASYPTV

**Q.** For `COC[C@@H]1CCCN1S(=O)(=O)c1ccc2c(c1)C(=O)C(=O)N2` [Caspase-3/7 Inhibitor I], which Ki (caspase-3) is on record?
**A.** 0.06 µM

**Q.** And the Ki (caspase-7)?
**A.** 0.17 µM

**Q.** For `CNC(C)=O` [N-methylacetamide], which “increase in 18S rDNA in plasma (stabilization of extracellular nucleic acid population)” value (from here on “increase in 18S rDNA in plasma”) (18S ribosomal DNA; [5]) is on record?
**A.** significantly reduced increase in 18S rDNA

**Q.** And the “stabilization of transcript levels of FOS, IL1B, IL8, TP53” value [1]?
**A.** effective in stabilizing transcript levels for up to three days

**Q.** Which “increase in 18S rDNA in plasma” value (18S ribosomal DNA; [5]) does the source give for `CNC=O` [N-methylformamide] here?
**A.** significantly reduced increase in 18S rDNA

**Q.** For `N=c1sc2c(n1CC(=O)c1ccc([N+](=O)[O-])cc1)CCCC2` [Pifithrin-α, p-Nitro], which t1/2 [2] is on record?
**A.** biological systems (t1/2 = 8h in neuron culture medium at 37° C).

**Q.** For `CC(N)=O` [acetamide], which “increase in 18S rDNA in plasma” value (18S ribosomal DNA; [5]) is on record?
**A.** significantly reduced increase in 18S rDNA

**Q.** Which results are given for `CCCC(N)=O` [butanamide]?
**A.** increase in 18S rDNA in plasma (stabilization of extracellular nucleic acid population) (18S ribosomal DNA; [6]): significantly reduced increase in 18S rDNA; increase in 18S rDNA in plasma (stabilization of extracellular nucleic acid population) (18S ribosomal DNA; [5]): uniform stabilization results were obtained; hemolysis of the red blood cells contained in the blood sample (red blood cells): prevents the hemolysis

**Q.** What does the source list for `NC=O` [formamide]?
**A.** white blood cell integrity, microscopy of blood smears (white blood cells [3]): did not act lytic on WBC; lysis of lymphocytes and monocytes, flow cytometry (white blood cells [4]; RT up to three days): not affected by lysis; lysis of neutrophilic granulocytes, flow cytometry (white blood cells [4]; longer storage at RT): Some lysis appeared to have occurred; increase in 18S rDNA in plasma (stabilization of extracellular nucleic acid population) (18S ribosomal DNA; [6]): significantly reduced increase in 18S rDNA; increase in 18S rDNA in plasma (stabilization of extracellular nucleic acid population) (18S ribosomal DNA; [5]): uniform stabilization results were obtained

**Q.** Which “increase in 18S rDNA in plasma” value (18S ribosomal DNA; [5]) does the source give for `CCC(N)=O` [propanamide] here?
**A.** significantly reduced increase in 18S rDNA

**Q.** With Ac-Leu-Leu-[Nle]-aldehyde as the compound, how does the Ki (calpain I) read?
**A.** 0.19 µM

**Q.** What about the Ki (cathepsin L) of the same compound?
**A.** 0.0005 µM

**Q.** And the Ki (calpain II)?
**A.** 0.15 µM

**Q.** For “Cbz-Leu-Leu-Tyr-CH2F [Calpain Inhibitor IV]”, which “k2 cathepsin L” value (cathepsin L) is on record?
**A.** 680,000 M-1s-1).

**Q.** And the “k2 calpain II” value (calpain II; irreversible inhibitor)?
**A.** 28,900 M-1s-1). Also acts as an inhibitor of cathepsin L (k2 =

**Q.** For Quinoline-Val-Asp-CH2-OPH [Q-VD-OPh], which “effectiveness in preventing apoptosis compared with Z-VAD-FMK” value (apoptosis) is on record?
**A.** even more effective
